ChEMBL document CHEMBL1201861, “Genomics of Drug Sensitity in Cancer screening data, Wellcome Trust Sanger Institute”

Experiments:
Assay in all cases: cells
CaR-1 = type: functional, cell-based, Homo sapiens;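 also: growth inhibition of human CaR-1 cancer cells, read out with a cell viability assay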
Description: SANGER: Inhibition of human CaR-1 cell growth in a cell viability assay.

D-336MG = type: functional, cell-based, Homo sapiens
Description: SANGER: Inhibition of human D-336MG cell growth in a cell viability assay.

D-542MG = type: functional, cell-based, Homo sapiens
Description: SANGER: Inhibition of human D-542MG cell growth in a cell viability assay.

G-401 = type: functional, cell-based, Homo sapiens
Description: SANGER: Inhibition of human G-401 cell growth in a cell viability assay.

GMS-10 = type: functional, cell-based, Homo sapiens;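 also: growth inhibition of GMS-10 cells, read out as cell viability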
Description: SANGER: Inhibition of human GMS-10 cell growth in a cell viability assay.

HCC1937 = type: functional, cell-based, Homo sapiens;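 also: growth inhibition measured with a cell viability read-out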
Description: SANGER: Inhibition of human HCC1937 cell growth in a cell viability assay.

HT1197 = type: functional, cell-based, Homo sapiens, HT-1197
Description: SANGER: Inhibition of human HT-1197 cell growth in a cell viability assay.

HTC-C3 = type: functional, cell-based, Homo sapiens;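 also: inhibition of cell growth, read out with a cell viability assay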
Description: SANGER: Inhibition of human HTC-C3 cell growth in a cell viability assay.

KU-19-19 = type: functional, cell-based, Homo sapiens
Description: SANGER: Inhibition of human KU-19-19 cell growth in a cell viability assay.

KYSE-410 = type: functional, cell-based, Homo sapiens;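 also: growth inhibition of KYSE-410 cells, measured through a cell viability readout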
Description: SANGER: Inhibition of human KYSE-410 cell growth in a cell viability assay.

MC-IXC = type: functional, cell-based, Homo sapiens;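 also: growth inhibition of MC-IXC cells, read out with a cell viability assay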
Description: SANGER: Inhibition of human MC-IXC cell growth in a cell viability assay.

MEL-JUSO = type: functional, cell-based, Homo sapiens;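 also: growth inhibition of human MEL-JUSO cells, read out with a cell viability assay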
Description: SANGER: Inhibition of human MEL-JUSO cell growth in a cell viability assay.

MKN-1 = type: functional, cell-based, Homo sapiens;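 also: growth inhibition of human MKN1 cells, read out by a cell viability measurement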
Description: SANGER: Inhibition of human MKN1 cell growth in a cell viability assay.

MOLT-13 = type: functional, cell-based, Homo sapiens;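 also: IC50 for suppression of MOLT-13 cell growth, read out with a cell viability assay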
Description: SANGER: Inhibition of human MOLT-13 cell growth in a cell viability assay.

MeWo = type: functional, cell-based, Homo sapiens;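 also: growth inhibition of MeWo cells, determined by a cell viability readout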
Description: SANGER: Inhibition of human Mewo cell growth in a cell viability assay.

NCI-H1048 = type: functional, cell-based, Homo sapiens;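 also: growth inhibition of human NCI-H1048 cells, read out with a cell viability assay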
Description: SANGER: Inhibition of human NCI-H1048 cell growth in a cell viability assay.

NCI-H1792 = type: functional, cell-based, Homo sapiens;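 also: growth inhibition of human NCI-H1792 cells, read out as cell viability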
Description: SANGER: Inhibition of human NCI-H1792 cell growth in a cell viability assay.

NCI-H2009 = type: functional, cell-based, Homo sapiens;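 also: cell viability assay measuring inhibition of NCI-H2009 cell growth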
Description: SANGER: Inhibition of human NCI-H2009 cell growth in a cell viability assay.

NCI-H441 = type: functional, cell-based, Homo sapiens;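 also: growth inhibition of NCI-H441 cells, read out with a cell viability assay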
Description: SANGER: Inhibition of human NCI-H441 cell growth in a cell viability assay.

OAW-28 = type: functional, cell-based, Homo sapiens;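 also: growth inhibition of OAW-28 cells, read out with a cell viability assay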
Description: SANGER: Inhibition of human OAW-28 cell growth in a cell viability assay.

PANC-08-13 = type: functional, cell-based, Homo sapiens;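 also: cell growth inhibition, measured with a cell viability assay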
Description: SANGER: Inhibition of human PANC-08-13 cell growth in a cell viability assay.

RPMI-2650 = type: functional, cell-based, Homo sapiens
Description: SANGER: Inhibition of human RPMI-2650 cell growth in a cell viability assay.

SBC-5 = type: functional, cell-based, Homo sapiens;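 also: cell viability assay read-out, IC50 is the concentration that inhibits growth of the cells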
Description: SANGER: Inhibition of human SBC-5 cell growth in a cell viability assay.

SK-LU-1 = type: functional, cell-based, Homo sapiens;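 also: cell viability assay measuring growth inhibition of human SK-LU-1 cells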
Description: SANGER: Inhibition of human SK-LU-1 cell growth in a cell viability assay.

SK-MEL-30 = type: functional, cell-based, Homo sapiens;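 also: growth inhibition of SK-MEL-30 cells, determined with a cell viability assay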
Description: SANGER: Inhibition of human SK-MEL-30 cell growth in a cell viability assay.

SW48 = type: functional, cell-based, Homo sapiens;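 also: growth inhibition of SW48 cells, read out with a cell viability assay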
Description: SANGER: Inhibition of human SW48 cell growth in a cell viability assay.

SW756 = type: functional, cell-based, Homo sapiens;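 also: growth inhibition of human SW756 cells, read out with a cell viability assay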
Description: SANGER: Inhibition of human SW756 cell growth in a cell viability assay.

T84 = type: functional, cell-based, Homo sapiens;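 also: growth inhibition measured with a cell viability readout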
Description: SANGER: Inhibition of human T84 cell growth in a cell viability assay.

T98G = type: functional, cell-based, Homo sapiens;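 also: growth inhibition of T98G cells, read out by a cell viability assay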
Description: SANGER: Inhibition of human T98G cell growth in a cell viability assay.

23132-87 = type: functional, cell-based, Homo sapiens
Description: SANGER: Inhibition of human 23132-87 cell growth in a cell viability assay.

647-V = type: functional, cell-based, Homo sapiens;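 also: growth inhibition of 647-V cells, read out with a cell viability assay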
Description: SANGER: Inhibition of human 647-V cell growth in a cell viability assay.

A2780 = type: functional, cell-based, Homo sapiens;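 also: growth inhibition of A2780 cells, read out with a cell viability assay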
Description: SANGER: Inhibition of human A2780 cell growth in a cell viability assay.

ASPC1 = type: functional, cell-based, Homo sapiens;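 also: growth inhibition of AsPC-1 cells, read out with a cell viability assay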
Description: SANGER: Inhibition of human AsPC-1 cell growth in a cell viability assay.

BPH-1 = type: functional, cell-based, Homo sapiens;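 also: cell viability assay measuring growth inhibition of human BPH-1 cells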
Description: SANGER: Inhibition of human BPH-1 cell growth in a cell viability assay.

CAL-120 = type: functional, cell-based, Homo sapiens;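 also: cell growth inhibition, read out as cell viability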
Description: SANGER: Inhibition of human CAL-120 cell growth in a cell viability assay.

UO-31 = type: functional, cell-based, Homo sapiens;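 also: cell viability assay measuring inhibition of cell growth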
Description: SANGER: Inhibition of human U031 cell growth in a cell viability assay.

UACC-62 = type: functional, cell-based, Homo sapiens;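 also: growth inhibition of human UACC-62 cells, read out by a cell viability assay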
Description: SANGER: Inhibition of human UACC-62 cell growth in a cell viability assay.

UMUC3 = type: functional, cell-based, Homo sapiens;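 also: growth inhibition of human UM-UC-3 cells, read out with a cell viability assay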
Description: SANGER: Inhibition of human UM-UC-3 cell growth in a cell viability assay.

VM-CUB-1 = type: functional, cell-based, Homo sapiens;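 also: cell viability assay measuring growth inhibition of the human VM-CUB-1 cell line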
Description: SANGER: Inhibition of human VM-CUB-1 cell growth in a cell viability assay.

YH-13 = type: functional, cell-based, Homo sapiens;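 also: cell viability readout of growth suppression in the human YH-13 cell line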
Description: SANGER: Inhibition of human YH-13 cell growth in a cell viability assay.

ZR-75-30 = type: functional, cell-based, Homo sapiens;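 also: growth inhibition of ZR-75-30 cells, measured with a cell viability readout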
Description: SANGER: Inhibition of human ZR-75-30 cell growth in a cell viability assay.

CHP-212 = type: functional, cell-based, Homo sapiens
Description: SANGER: Inhibition of human CHP-212 cell growth in a cell viability assay.

Compound: CC(C)CCN1c2nc(Nc3cc(F)c(O)c(F)c3)ncc2N(C)C(=O)C1C (stereo unspecified)
- IC50 (CaR-1; Homo sapiens, CaR-1): > 5 µM
- IC50 (D-336MG; Homo sapiens, D-336MG): > 5 µM
- IC50 (D-542MG; Homo sapiens, D-542MG): > 5 µM
- IC50 (G-401; Homo sapiens, G-401): > 5 µM
- IC50 (GMS-10; Homo sapiens, GMS-10): 3.09 µM
- IC50 (HCC1937; Homo sapiens, HCC1937): > 5 µM
- IC50 (HT1197; Homo sapiens, HT1197): > 5 µM
- IC50 (HTC-C3; Homo sapiens, HTC-C3): > 5 µM
- IC50 (KU-19-19; Homo sapiens, KU-19-19): 3.6 µM
- IC50 (KYSE-410; Homo sapiens, KYSE-410): > 5 µM
- IC50 (MC-IXC; Homo sapiens, MC-IXC): 796 nM
- IC50 (MEL-JUSO; Homo sapiens, MEL-JUSO): > 5 µM
- IC50 (MKN-1; Homo sapiens, MKN-1): 3.21 µM
- IC50 (MOLT-13; Homo sapiens, MOLT-13): 3.97 µM
- IC50 (MeWo; Homo sapiens, MeWo): > 5 µM
- IC50 (NCI-H1048; Homo sapiens, NCI-H1048): 2680 nM
- IC50 (NCI-H1792; Homo sapiens, NCI-H1792): 2740 nM
- IC50 (NCI-H2009; Homo sapiens, NCI-H2009): > 5 µM
- IC50 (NCI-H441; Homo sapiens, NCI-H441): > 5 µM
- IC50 (OAW-28; Homo sapiens, OAW-28): > 5 µM
- IC50 (PANC-08-13; Homo sapiens, PANC-08-13): > 5 µM
- IC50 (RPMI-2650; Homo sapiens, RPMI-2650): > 5 µM
- IC50 (SBC-5; Homo sapiens, SBC-5): > 5 µM
- IC50 (SK-LU-1; Homo sapiens, SK-LU-1): > 5 µM
- IC50 (SK-MEL-30; Homo sapiens, SK-MEL-30): > 5 µM
- IC50 (SW48; Homo sapiens, SW48): 3.43 µM
- IC50 (SW756; Homo sapiens, SW756): > 5 µM
- IC50 (T84; Homo sapiens, T84): > 5 µM
- IC50 (T98G; Homo sapiens, T98G): 3.28 µM
- IC50 (23132-87; Homo sapiens): > 5 µM
- IC50 (647-V; Homo sapiens, 647-V): > 5 µM
- IC50 (A2780; Homo sapiens, A2780): > 5 µM
- IC50 (ASPC1; Homo sapiens, ASPC1): > 5 µM
- IC50 (BPH-1; Homo sapiens, BPH-1): 2130 nM
- IC50 (CAL-120; Homo sapiens, CAL-120): > 5 µM
- IC50 (UO-31; Homo sapiens, UO-31): > 5 µM
- IC50 (UACC-62; Homo sapiens, UACC-62): > 5 µM
- IC50 (UMUC3; Homo sapiens, UMUC3): > 5 µM
- IC50 (VM-CUB-1; Homo sapiens, VM-CUB-1): > 5 µM
- IC50 (YH-13; Homo sapiens, YH-13): > 5 µM
- IC50 (ZR-75-30; Homo sapiens, ZR-75-30): > 5 µM
- IC50 (CHP-212; Homo sapiens, CHP-212): > 5 µM

Compound: CO[C@H]1C[C@@H]2CC[C@@H](C)[C@@](O)(O2)C(=O)C(=O)N2CCCC[C@H]2C(=O)O[C@H]([C@H](C)C[C@@H]2CC[C@@H](OC(=O)C(C)(CO)CO)[C@H](OC)C2)CC(=O)[C@H](C)/C=C(\C)[C@@H](O)[C@@H](OC)C(=O)[C@H](C)C[C@H](C)/C=C/C=C/C=C/1C [TEMSIROLIMUS]
- IC50 (CaR-1; Homo sapiens, CaR-1): > 0.2 µM
- IC50 (D-336MG; Homo sapiens, D-336MG): 0.076 µM
- IC50 (D-542MG; Homo sapiens, D-542MG): 0.0779 µM
- IC50 (G-401; Homo sapiens, G-401): 0.089 µM
- IC50 (GMS-10; Homo sapiens, GMS-10): > 0.2 µM
- IC50 (HCC1937; Homo sapiens, HCC1937): > 0.2 µM
- IC50 (HT1197; Homo sapiens, HT1197): > 0.2 µM
- IC50 (HTC-C3; Homo sapiens, HTC-C3): 0.0682 µM
- IC50 (KU-19-19; Homo sapiens, KU-19-19): > 0.2 µM
- IC50 (KYSE-410; Homo sapiens, KYSE-410): 0.18 µM
- IC50 (MC-IXC; Homo sapiens, MC-IXC): > 200 nM
- IC50 (MEL-JUSO; Homo sapiens, MEL-JUSO): 0.0666 µM
- IC50 (MKN-1; Homo sapiens, MKN-1): > 0.2 µM
- IC50 (MOLT-13; Homo sapiens, MOLT-13): > 0.2 µM
- IC50 (MeWo; Homo sapiens, MeWo): 0.0494 µM
- IC50 (NCI-H1048; Homo sapiens, NCI-H1048): > 200 nM
- IC50 (NCI-H1792; Homo sapiens, NCI-H1792): > 200 nM
- IC50 (NCI-H2009; Homo sapiens, NCI-H2009): > 0.2 µM
- IC50 (NCI-H441; Homo sapiens, NCI-H441): > 0.2 µM
- IC50 (OAW-28; Homo sapiens, OAW-28): > 0.2 µM
- IC50 (PANC-08-13; Homo sapiens, PANC-08-13): > 0.2 µM
- IC50 (RPMI-2650; Homo sapiens, RPMI-2650): 0.117 µM
- IC50 (SBC-5; Homo sapiens, SBC-5): 0.103 µM
- IC50 (SK-LU-1; Homo sapiens, SK-LU-1): 0.102 µM
- IC50 (SK-MEL-30; Homo sapiens, SK-MEL-30): > 0.2 µM
- IC50 (SW48; Homo sapiens, SW48): > 0.2 µM
- IC50 (SW756; Homo sapiens, SW756): > 0.2 µM
- IC50 (T84; Homo sapiens, T84): > 0.2 µM
- IC50 (T98G; Homo sapiens, T98G): 0.0262 µM
- IC50 (23132-87; Homo sapiens): 0.0647 µM
- IC50 (647-V; Homo sapiens, 647-V): > 0.2 µM
- IC50 (A2780; Homo sapiens, A2780): 0.00588 µM
- IC50 (ASPC1; Homo sapiens, ASPC1): > 0.2 µM
- IC50 (BPH-1; Homo sapiens, BPH-1): 32.4 nM
- IC50 (CAL-120; Homo sapiens, CAL-120): > 0.2 µM
- IC50 (UO-31; Homo sapiens, UO-31): > 0.2 µM
- IC50 (UACC-62; Homo sapiens, UACC-62): > 0.2 µM
- IC50 (UMUC3; Homo sapiens, UMUC3): 0.0692 µM
- IC50 (VM-CUB-1; Homo sapiens, VM-CUB-1): 0.0127 µM
- IC50 (YH-13; Homo sapiens, YH-13): 0.0411 µM
- IC50 (ZR-75-30; Homo sapiens, ZR-75-30): > 0.2 µM
- IC50 (CHP-212; Homo sapiens, CHP-212): 0.0524 µM

Compound: CISPLATIN
- IC50 (CaR-1; car-1): 755 µM
- IC50 (D-336MG; d-336mg): 33.9 µM
- IC50 (D-542MG; d-542mg): 3.26 µM
- IC50 (G-401; g-401): 7.25 µM
- IC50 (GMS-10; gms-10): 85.2 µM
- IC50 (HCC1937; hcc1937): 137 µM
- IC50 (HT1197; ht-1197): 13.3 µM
- IC50 (HTC-C3; htc-c3): 4.49 µM
- IC50 (KU-19-19; ku-19-19): 10.1 µM
- IC50 (KYSE-410; kyse-410): 515 µM
- IC50 (MC-IXC; mc-ixc): 1680 nM
- IC50 (MEL-JUSO; mel-juso): 18.8 µM
- IC50 (MKN-1; mkn-1): 42.1 µM
- IC50 (MOLT-13; molt-13): 381 µM
- IC50 (MeWo; mewo): 16.7 µM
- IC50 (NCI-H1048; nci-h1048): 9870 nM
- IC50 (NCI-H1792; nci-h1792): 14900 nM
- IC50 (NCI-H2009; nci-h2009): 496 µM
- IC50 (NCI-H441; nci-h441): 199 µM
- IC50 (OAW-28; oaw-28): 22.9 µM
- IC50 (PANC-08-13; panc-08-13): 22.5 µM
- IC50 (RPMI-2650; rpmi-2650): 75.5 µM
- IC50 (SBC-5; sbc-5): 70.1 µM
- IC50 (SK-LU-1; sk-lu-1): 7.38 µM
- IC50 (SK-MEL-30; sk-mel-30): 480 µM
- IC50 (SW48; sw48): 9.22 µM
- IC50 (SW756; sw756): 9.26 µM
- IC50 (T84; t84): 356 µM
- IC50 (T98G; t98g): 141 µM
- IC50 (23132-87): 60.3 µM
- IC50 (647-V; 647-v): 114 µM
- IC50 (A2780; a2780): 6.39 µM
- IC50 (ASPC1; aspc1): 21 µM
- IC50 (BPH-1; bph-1): 17900 nM
- IC50 (CAL-120; cal-120): 264 µM
- IC50 (UO-31; uo-31): 12.9 µM
- IC50 (UACC-62; uacc-62): 12.4 µM
- IC50 (UMUC3; umuc3): 3.93 µM
- IC50 (VM-CUB-1; vm-cub-1): 6.3 µM
- IC50 (YH-13; yh-13): 12.1 µM
- IC50 (ZR-75-30; zr-75-30): 72.2 µM
- IC50 (CHP-212; chp-212): 25.5 µM
